Test results as given in patent publication US20100137399A1, “PREVENTIVE AND/OR THERAPEUTIC AGENT FOR URINE COLLECTION DISORDER ACCOMPANYING LOWER URINARY TRACT OBSTRUCTION” (KISSEI PHARMACEUTICAL CO., LTD., priority 2004, published 2010).
Where a name gives a salt, the structure may show the parent alone.

How the values were obtained:
[1] = target: T1, α1A-AR subtype (Homo sapiens, UniProt P35348); settings: Patent Reference 3 and Non-patent Reference 5; cited from earlier work
T1 sequence (P35348 1-466): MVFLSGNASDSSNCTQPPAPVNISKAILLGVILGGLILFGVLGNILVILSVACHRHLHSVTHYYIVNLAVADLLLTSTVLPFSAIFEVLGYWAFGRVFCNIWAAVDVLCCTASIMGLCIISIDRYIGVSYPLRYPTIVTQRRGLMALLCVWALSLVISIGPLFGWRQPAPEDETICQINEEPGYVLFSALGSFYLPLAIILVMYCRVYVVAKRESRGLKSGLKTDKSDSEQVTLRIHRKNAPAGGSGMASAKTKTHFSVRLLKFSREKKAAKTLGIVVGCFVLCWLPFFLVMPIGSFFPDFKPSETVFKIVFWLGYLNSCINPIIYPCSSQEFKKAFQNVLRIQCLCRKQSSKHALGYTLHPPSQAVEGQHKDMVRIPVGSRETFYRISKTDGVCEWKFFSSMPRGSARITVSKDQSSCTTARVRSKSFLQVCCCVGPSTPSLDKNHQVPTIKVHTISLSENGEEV

[2] = target: T2, α1B-AR subtype (Homo sapiens, UniProt P35368); settings: Patent Reference 3 and Non-patent Reference 5; cited from earlier work
T2 sequence (P35368 1-520): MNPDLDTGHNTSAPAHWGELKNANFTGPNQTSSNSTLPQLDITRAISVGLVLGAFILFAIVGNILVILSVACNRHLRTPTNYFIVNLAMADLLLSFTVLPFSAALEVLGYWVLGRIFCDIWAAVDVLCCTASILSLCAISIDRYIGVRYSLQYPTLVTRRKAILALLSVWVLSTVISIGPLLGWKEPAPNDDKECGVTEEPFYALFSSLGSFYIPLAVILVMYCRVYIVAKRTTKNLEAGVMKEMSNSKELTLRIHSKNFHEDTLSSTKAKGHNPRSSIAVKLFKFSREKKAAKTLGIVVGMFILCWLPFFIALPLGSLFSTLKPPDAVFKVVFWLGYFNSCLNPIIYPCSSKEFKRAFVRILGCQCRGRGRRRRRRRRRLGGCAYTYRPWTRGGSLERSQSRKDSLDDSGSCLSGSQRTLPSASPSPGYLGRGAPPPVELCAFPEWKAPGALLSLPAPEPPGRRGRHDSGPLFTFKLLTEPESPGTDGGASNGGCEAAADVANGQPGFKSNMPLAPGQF

[3] = target: T3, α1D-AR subtype (Homo sapiens, UniProt P25100); settings: Patent Reference 3 and Non-patent Reference 5; cited from earlier work
T3 sequence (P25100 1-572): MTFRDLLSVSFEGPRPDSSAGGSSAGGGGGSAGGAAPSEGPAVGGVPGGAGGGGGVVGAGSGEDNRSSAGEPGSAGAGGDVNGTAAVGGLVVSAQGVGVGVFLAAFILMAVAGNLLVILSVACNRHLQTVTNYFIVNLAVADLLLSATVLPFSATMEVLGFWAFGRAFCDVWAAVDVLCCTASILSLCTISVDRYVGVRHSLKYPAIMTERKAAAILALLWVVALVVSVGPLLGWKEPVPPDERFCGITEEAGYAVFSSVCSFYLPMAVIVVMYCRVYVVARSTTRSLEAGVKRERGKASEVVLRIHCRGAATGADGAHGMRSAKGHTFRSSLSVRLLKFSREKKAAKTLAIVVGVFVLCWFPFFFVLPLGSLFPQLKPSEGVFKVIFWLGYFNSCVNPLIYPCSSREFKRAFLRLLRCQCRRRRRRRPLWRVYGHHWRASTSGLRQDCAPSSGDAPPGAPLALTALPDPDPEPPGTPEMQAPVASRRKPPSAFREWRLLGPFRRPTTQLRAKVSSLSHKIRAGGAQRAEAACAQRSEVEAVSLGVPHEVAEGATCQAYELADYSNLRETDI

[4] = test system: patients with urinary disturbance associated with benign prostatic hyperplasia; assay: Placebo-control parallel groups-comparing double blind clinical trial, I-PSS changes from pre-administration; format: in vivo, human; settings: for I-PSS (irritative symptom) Changes / I-PSS (obstructive symptom) Changes / Total I-PSS Changes: oral, 12 weeks
Description: Using patients with urinary disturbance associated with benign prostatic hyperplasia as the subjects, the clinical effects of silodosin and tamsulosin hydrochloride were examined by a placebo-control parallel groups-comparing double blind trial, using changes in the total I-PSS (International Prostate Symptom Score) from pre-administration as the primary endpoint. The I-PSS consists of 3 items of irritative symptoms representing the symptoms at the time of storing (Nocturia, Urgency and Urination within 2 hours) and 4 items of obstructive symptoms representing the symptoms at the time of voiding (Sensation of residual urine, Intermittency of urinary stream, Power of urinary stream and Straining during urination), prepared for use in the judgment of various therapeutic effects on the dysuria associated with benign prostatic hyperplasia, but this is not specific to prostatic hyperplasia and can also be used for the judgment of therapeutic effects on female dysuria and the like (Non-patent Reference 1).
Effects of silodosin (4 mg per once, twice a day) and tamsulosin hydrochloride (0.2 mg per once, once a day) on the storage disorder were examined by the following method.
Patients to be tested: 455 patients with dysuria associated with benign prostatic hyperplasia
Administration method: oral administration for 12 weeks
Primary endpoints: total score of I-PSS, I-PSS irritative symptom score and I-PSS obstructive symptom score
Analysis method: all of the finally evaluated cases were stratified into groups of patients having a total score of less than 6 and that of 6 or more regarding the “Urination within 2 hours” and “Urgency” of I-PSS, and average values of respective changes in the total score of I-PSS, I-PSS irritative symptom score and I-PSS obstructive symptom score before and after the administration were calculated for each group.
Administration groups: silodosin group (116 cases having a pre-administration score of less than 6, and 58 cases having that of 6 or more), tamsulosin group (135 cases having a pre-administration score of less than 6, and 57 cases having that of 6 or more), a placebo group (61 cases having a pre-administration score of less than 6, and 28 cases having that of 6 or more)
Not at all: 0 point; Less than 1 time in 5: 1 point; Less than 1 time in 2: 2 points; About 1 time in 2: 3 points; More than 1 time in 2: 4 points; Almost always: 5 points.
None: 0 point; 1 time: 1 point; 2 times: 2 points; 3 times: 3 points; 4 times: 4 points; 5 times or more: 5 points.

[5] = Overall (all patients), average change
[6] = patients with pre-administration total score of "Urination within 2 hours" and "Urgency" less than 6, average change before/after administration
[7] = pre-administration score 6 or more, average change
[8] = pre-administration score less than 6, average change

Compound	Action upon α1A-AR subtype (in words) [1]	Inverse agonist activity (in words) [1]	Action upon α1B-AR subtype (in words) [2]	Action upon α1D-AR subtype (in words) [3]	I-PSS (irritative symptom) Changes [4, 5]	I-PSS (obstructive symptom) Changes [4, 5]	Total I-PSS Changes [4, 5]	Effect on I-PSS irritative symptom score in patients showing storage disorders (in words) ([4]; particularly patients with 6 or more total score of "Urination within 2 hours" and "Urgency" at pre-administration)	Total I-PSS Changes [4, 6]	I-PSS (irritative symptom) Changes [4, 7]	I-PSS (obstructive symptom) Changes [4, 7]	Total I-PSS Changes [4, 7]	I-PSS (irritative symptom) Changes [4, 8]	I-PSS (obstructive symptom) Changes [4, 8]
C[C@H](Cc1cc2c(c(C(N)=O)c1)N(CCCO)CC2)NCCOc1ccccc1OCC(F)(F)F [Silodosin, (−)-1-(3-hydroxypropyl)-5-((2R)-2-{[2-({2-[(2,2,2-trifluoroethyl)-oxy]phenyl}oxy)ethyl]amino}propyl)2,3-dihydro-1H-indole-7-carboxamide]	selectively acts	does not show inverse agonist activity	hardly acts	hardly acts	−2.5	−5.8	−8.3	has the effect to improve I-PSS irritative symptom score	−6.8	−4.3	−7.1	−11.3	−1.6	−5.2
CCOc1ccccc1OCCN[C@H](C)Cc1ccc(OC)c(S(N)(=O)=O)c1 [Tamsulosin, tamsulosin hydrochloride, reference compound]					−2.1	−4.8	−6.8		−5.9	−3.9	−5.2	−9.1	−1.3	−4.6
